Data taken from US6448374B1, “Production of phosphopeptides from casein” (The University of Melbourne, priority 1991, dated 2002).
Where no end group is shown, it is not given here. [ ]: non-standard residue; d: D form. pS = N[C@@H](COP(=O)(O)O)C(=O)O

Legend:
[1] = phosphate binding of the phosphopeptide; type: physicochemical; conditions: calcium phosphate ACPP
Excerpt: (§1) The calcium ACPP can be converted to calcium phosphate ACPP by addition of CaCl2 and Na2HPO4 where the Ca/P final ratio is 1.67. The peptide αs1(59-79) can bind 21 Ca and 13 PO4. The filtrate of the above process is suited for the purification of other bioactive casein peptides by size and charge-based separation technologies and can be used as microbiological growth media, as dietary supplements after debittering or as a nitrogen fertilizer.

[2] = phosphopeptides released by tryptic digestion of casein; from Australian Patent No. 593365; cited from earlier work
[3] = calcium binding of the phosphopeptide; type: physicochemical; conditions: calcium phosphate ACPP
Excerpt: as §1

| Substance | PO4 bound per peptide [1] [PO4] | anticariogenic (tooth-decay-inhibiting) activity [2] | Ca bound per peptide [3] [Ca] |
| --- | --- | --- | --- |
| αs1(59-79): casein tryptic phosphopeptide containing -Ser(P)-Ser(P)-Ser(P)-Glu-Glu- (QMEAESI[pS][pS][pS]EEIVPNSVEQK; ends and bridges not checked; also: other serines' phosphorylation not given here) | 13 | anticariogenic (tooth-decay-inhibiting) activity | 21 |
| αs2(2-21): casein tryptic phosphopeptide containing -Ser(P)-Ser(P)-Ser(P)-Glu-Glu- (NTMEHV[pS][pS][pS]EESIISQETYK; ends and bridges not checked; also: other serines' phosphorylation not given here) | – | anticariogenic (tooth-decay-inhibiting) activity | – |
| αs2(46-70): casein tryptic phosphopeptide containing -Ser(P)-Ser(P)-Ser(P)-Glu-Glu- (NANEEEYSIG[pS][pS][pS]EESAEVATEEVK; ends and bridges not checked; also: other serines' phosphorylation not given here) | – | anticariogenic (tooth-decay-inhibiting) activity | – |
| β(2-25): casein tryptic phosphopeptide containing -Ser(P)-Ser(P)-Ser(P)-Glu-Glu- (ELEELNVPGEIVESL[pS][pS][pS]EESITR; ends and bridges not checked; also: other serines' phosphorylation not given here) | – | anticariogenic (tooth-decay-inhibiting) activity | – |
